SMILES strings stand for the structures.

For data set [1], the species on record is Homo sapiens. Description: Liver toxicity in human assessed as induction of drug-induced liver injury by measuring severity class index.
For data set [2], the species on record is Homo sapiens. Description: Liver toxicity in human assessed as induction of drug-induced liver injury by measuring verified drug-induced liver injury concern status.
For DILI severity class in this document: key of the grades not given here.

Consider `CC(C)(N)Cc1ccccc1` [PHENTERMINE], for which, in the data set listed under Homo sapiens [1], the DILI_severity_class amounted to 0. The DILI_Concern result in the data set filed under Homo sapiens [2] is recorded as “Less-Dili-Concern”.
With `Cc1ccc(N(CC2=NCCN2)c2cccc(O)c2)cc1` [PHENTOLAMINE], in the data set filed under Homo sapiens [1], the DILI_severity_class is reported as 0. The DILI_Concern result in the data set filed under Homo sapiens [2] is recorded as “No-Dili-Concern”.
For `O=C1NC(=O)C(c2ccccc2)(c2ccccc2)N1` [PHENYTOIN], the DILI_severity_class in the data set filed under Homo sapiens [1] amounted to 8. Further, the DILI_Concern entry in the data set filed under Homo sapiens [2] is on record as “Most-Dili-Concern”.
For `CNC(=O)Oc1ccc2c(c1)[C@]1(C)CCN(C)[C@@H]1N2C` [PHYSOSTIGMINE], in the data set listed under Homo sapiens [1], the DILI_severity_class came to 0. In addition, the DILI_Concern entry in the data set filed under Homo sapiens [2] is on record as “No-Dili-Concern”.
Regarding `CC1=C(C/C=C(\C)CCC[C@H](C)CCC[C@H](C)CCCC(C)C)C(=O)c2ccccc2C1=O` [PHYTONADIONE], the DILI_severity_class in the data set filed under Homo sapiens [1] was 0. In addition, in the data set filed under Homo sapiens [2], the DILI_Concern entry is “No-Dili-Concern”.
For `CC[C@@H]1C(=O)OC[C@@H]1Cc1cncn1C` [PILOCARPINE], in that order: 3 and “Ambiguous-Dili-Concern”.
As to `O=c1[nH]c2ccccc2n1C1CCN(CCCC(c2ccc(F)cc2)c2ccc(F)cc2)CC1` [PIMOZIDE], the DILI_severity_class in the data set filed under Homo sapiens [1] came to 0. Also, the DILI_Concern result in the data set listed under Homo sapiens [2] is reported as “No-Dili-Concern”.
Regarding `CC(C)NCC(O)COc1cccc2[nH]ccc12` (stereo unspecified) [PINDOLOL], the DILI_severity_class in the data set filed under Homo sapiens [1] is 0. Moreover, the DILI_Concern result in the data set filed under Homo sapiens [2] was “No-Dili-Concern”.
For `CCc1ccc(CCOc2ccc(CC3SC(=O)NC3=O)cc2)nc1` (stereo unspecified) [PIOGLITAZONE], in that order: 3 and “Less-Dili-Concern”.
As to `NC(=O)C1CCN(CCCN2c3ccccc3Sc3ccc(Cl)cc32)CC1` [PIPAMAZINE], the DILI_severity_class in the data set listed under Homo sapiens [1] is 8. The DILI_Concern entry in the data set filed under Homo sapiens [2] is recorded as “Most-Dili-Concern”.
For `CCN1CCN(C(=O)N[C@@H](C(=O)N[C@@H]2C(=O)N3[C@@H]2SC(C)(C)[C@@H]3C(=O)O)c2ccccc2)C(=O)C1=O` [PIPERACILLIN], the DILI_severity_class in the data set listed under Homo sapiens [1] came out at 3. For the same molecule, in the data set listed under Homo sapiens [2], the DILI_Concern entry is reported as “Ambiguous-Dili-Concern”.
Take `CN1C(C(=O)Nc2ccccn2)=C(O)c2ccccc2S1(=O)=O` [PIROXICAM]: in the data set filed under Homo sapiens [1], the DILI_severity_class came out at 3. The DILI_Concern result in the data set filed under Homo sapiens [2] was “Less-Dili-Concern”.
Turning to `CC(C(=O)O)c1ccc(N2CC=CC2)c(Cl)c1` (stereo unspecified) [PIRPROFEN], the DILI_severity_class in the data set filed under Homo sapiens [1] is recorded as 8. Also, the DILI_Concern result in the data set filed under Homo sapiens [2] is recorded as “Most-Dili-Concern”.
Turning to `O=C(O)C[C@H](O)C[C@H](O)/C=C/c1c(C2CC2)nc2ccccc2c1-c1ccc(F)cc1` [PITAVASTATIN], the DILI_severity_class in the data set filed under Homo sapiens [1] is 3. For the same molecule, the DILI_Concern result in the data set listed under Homo sapiens [2] is listed as “Ambiguous-Dili-Concern”.
Regarding `c1cc(CN2CCCNCCNCCCNCC2)ccc1CN1CCCNCCNCCCNCC1` [PLERIXAFOR], in the data set listed under Homo sapiens [1], the DILI_severity_class is recorded as 0. The DILI_Concern result in the data set listed under Homo sapiens [2] is “No-Dili-Concern”.
For `CN1C(CSCC(F)(F)F)Nc2cc(Cl)c(S(N)(=O)=O)cc2S1(=O)=O` (stereo unspecified) [POLYTHIAZIDE], in that order: 2 and “Ambiguous-Dili-Concern”.
With `CC[C@@H]([C@H](C)O)n1ncn(-c2ccc(N3CCN(c4ccc(OC[C@@H]5CO[C@@](Cn6cncn6)(c6ccc(F)cc6F)C5)cc4)CC3)cc2)c1=O` [POSACONAZOLE], the DILI_severity_class in the data set filed under Homo sapiens [1] came to 8. The DILI_Concern entry in the data set listed under Homo sapiens [2] is listed as “Ambiguous-Dili-Concern”.
In the case of `C#CCC(Cc1cnc2nc(N)nc(N)c2n1)c1ccc(C(=O)N[C@@H](CCC(=O)O)C(=O)O)cc1` (stereo partly specified) [PRALATREXATE], the DILI_severity_class in the data set filed under Homo sapiens [1] is recorded as 3. Moreover, the DILI_Concern result in the data set listed under Homo sapiens [2] is recorded as “Ambiguous-Dili-Concern”.
For `C[n+]1ccccc1/C=N/O` [PRALIDOXIME], in that order: 3 and “Ambiguous-Dili-Concern”.
On to `CCCN[C@H]1CCc2nc(N)sc2C1` [PRAMIPEXOLE], for which the DILI_severity_class in the data set filed under Homo sapiens [1] came to 2. Further, the DILI_Concern entry in the data set filed under Homo sapiens [2] is reported as “Ambiguous-Dili-Concern”.
In the case of `CC[C@H](C)[C@H](NC(=O)[C@@H]1CCCN1C(=O)CNC(=O)[C@H](Cc1ccccc1)NC(=O)[C@H](CC(N)=O)NC(=O)[C@H](CC(N)=O)NC(=O)[C@H](CO)NC(=O)[C@H](CO)NC(=O)[C@H](Cc1c[nH]cn1)NC(=O)[C@@H](NC(=O)[C@H](CC(C)C)NC(=O)[C@H](Cc1ccccc1)NC(=O)[C@H](CC(N)=O)NC(=O)[C@H](C)NC(=O)[C@H](CC(C)C)NC(=O)[C@H](CCCNC(=N)N)NC(=O)[C@H](CCC(N)=O)NC(=O)[C@@H](NC(=O)[C@H](C)NC(=O)[C@@H]1CSSC[C@H](NC(=O)[C@@H](N)CCCCN)C(=O)N[C@@H](CC(N)=O)C(=O)N[C@@H]([C@@H](C)O)C(=O)N[C@@H](C)C(=O)N[C@@H]([C@@H](C)O)C(=O)N1)[C@@H](C)O)C(C)C)C(=O)N[C@@H](CC(C)C)C(=O)N1CCC[C@H]1C(=O)N1CCC[C@H]1C(=O)N[C@H](C(=O)N[C@@H](CC(N)=O)C(=O)N[C@H](C(=O)NCC(=O)N[C@@H](CO)C(=O)N[C@@H](CC(N)=O)C(=O)N[C@H](C(=O)N[C@@H](Cc1ccc(O)cc1)C(N)=O)[C@@H](C)O)C(C)C)[C@@H](C)O` [PRAMLINTIDE], the DILI_severity_class in the data set filed under Homo sapiens [1] stood at 0. Further, the DILI_Concern result in the data set filed under Homo sapiens [2] is “No-Dili-Concern”.
On to `CC(=O)Oc1cc2c(s1)CCN(C(C(=O)C1CC1)c1ccccc1F)C2.Cl` (stereo unspecified) [PRASUGREL HYDROCHLORIDE], for which the DILI_severity_class in the data set filed under Homo sapiens [1] was 0. In the data set listed under Homo sapiens [2], the DILI_Concern result is listed as “Less-Dili-Concern”.
With `CC[C@H](C)C(=O)O[C@H]1C[C@H](O)C=C2C=C[C@H](C)[C@H](CC[C@@H](O)C[C@@H](O)CC(=O)O)[C@H]21` [PRAVASTATIN], in the data set listed under Homo sapiens [1], the DILI_severity_class was found to be 3. The DILI_Concern result in the data set listed under Homo sapiens [2] is reported as “Less-Dili-Concern”.
Taken in the same sequence, the figures for `COc1cc2nc(N3CCN(C(=O)c4ccco4)CC3)nc(N)c2cc1OC` [PRAZOSIN] were 3 and “Ambiguous-Dili-Concern”.
`C[C@]12C=CC(=O)C=C1CC[C@@H]1[C@@H]2[C@@H](O)C[C@@]2(C)[C@H]1CC[C@]2(O)C(=O)CO` [PREDNISOLONE]: the DILI_severity_class in the data set listed under Homo sapiens [1] was 3. In the data set listed under Homo sapiens [2], the DILI_Concern result is given as “Less-Dili-Concern”.
Turning to `C[C@]12C=CC(=O)C=C1CC[C@@H]1[C@@H]2C(=O)C[C@@]2(C)[C@H]1CC[C@]2(O)C(=O)CO` [PREDNISONE], the DILI_severity_class in the data set listed under Homo sapiens [1] stood at 3. Also, the DILI_Concern entry in the data set filed under Homo sapiens [2] is listed as “Less-Dili-Concern”.
For `COc1cc(NC(C)CCCN)c2ncccc2c1` (stereo unspecified) [PRIMAQUINE], in that order: 0 and “No-Dili-Concern”.
Consider `CCC1(c2ccccc2)C(=O)NCNC1=O` [PRIMIDONE], for which the DILI_severity_class in the data set filed under Homo sapiens [1] is 0. In addition, the DILI_Concern result in the data set listed under Homo sapiens [2] is given as “No-Dili-Concern”.
As for `CCCN(CCC)S(=O)(=O)c1ccc(C(=O)O)cc1` [PROBENECID], the DILI_severity_class in the data set filed under Homo sapiens [1] was 6. Moreover, the DILI_Concern entry in the data set filed under Homo sapiens [2] is recorded as “Ambiguous-Dili-Concern”.
As for `CCN(CC)CCNC(=O)c1ccc(N)cc1` [PROCAINAMIDE], the DILI_severity_class in the data set listed under Homo sapiens [1] came to 4. Moreover, the DILI_Concern entry in the data set filed under Homo sapiens [2] is “Less-Dili-Concern”.
As to `CNNCc1ccc(C(=O)NC(C)C)cc1` [PROCARBAZINE], in the data set listed under Homo sapiens [1], the DILI_severity_class was 3. Also, the DILI_Concern entry in the data set filed under Homo sapiens [2] is “Less-Dili-Concern”.
Regarding `CN1CCN(CCCN2c3ccccc3Sc3ccc(Cl)cc32)CC1` [PROCHLORPERAZINE], the DILI_severity_class in the data set filed under Homo sapiens [1] worked out at 2. Besides, in the data set listed under Homo sapiens [2], the DILI_Concern entry is on record as “Less-Dili-Concern”.
Consider `OC(CCN1CCCC1)(c1ccccc1)C1CCCCC1` (stereo unspecified) [PROCYCLIDINE], for which the DILI_severity_class in the data set filed under Homo sapiens [1] was 0. The DILI_Concern result in the data set filed under Homo sapiens [2] is “No-Dili-Concern”.
